Patent EP4711368A1 (priority 2023, dated 2024)
Like-named read-outs stand apart in the source and are kept apart here.

What was measured:
SD rats [1] = conditions: rat, in vivo; for MLD: iv
SD rats [2] = experiment: animal or person; type: in vivo; conditions: iv; for minimal effective dose: Rattus norvegicus; for Onset time / Righting feflex duration / Sedation Duration: rat, in vivo
[3] = read-out: Minimal effective anesthetic dose
[4] = read-out: Minimal effective analgesic dose
Throughout, for Onset time: test concentration or dose not given here.
Throughout, for Righting feflex duration: test concentration or dose not given here.
Throughout, for Sedation Duration: test concentration or dose not given here.

Compound	TI (SD rats [1]; SD)	MLD (SD rats [1]; SD)	minimal effective dose (SD rats [2]; [3])	Onset time (SD rats [2])	Righting feflex duration (SD rats [2])	Sedation Duration (SD rats [2])	minimal effective dose (SD rats [2]; [4])	MLD (SD rats [1])
C=CC1(OC(=O)CN2N=C(c3ccccn3)c3cc(Br)ccc3N(C)C2=O)COC1 [Compound 254]	2	20 mg/kg	10 mg/kg	0.60 to 0.65 min	0.78 to 3.10 min	29.25 to 40.22 min	–	–
CCC(C)(C)OC(=O)CN1N=C(c2ccccn2)c2cc(Br)ccc2N(C)C1=O [Compound 255]	2	30 mg/kg	15 mg/kg	0.53 to 0.97 min	12.27 to 13.62 min	43.43 to 66.14 min	20 mg/kg	–
CCN1C(=O)N(CC(=O)OC(C)C)N=C(c2ccccn2)c2cc(Br)ccc21 [Compound 256]	6	30 mg/kg	5 mg/kg	0.17 to 0.50 min	0.32 to 26.03 min	13.38 to 59.65 min	10 mg/kg	–
CC(C)OC(=O)CN1N=C(c2ccccn2)c2cc(Br)ccc2N(C(C)C)C1=O [Compound 257]	4	40 mg/kg	10 mg/kg	0.77 to 1.48 min	5.85 to 20.40 min	33.47 to 64.03 min	10 mg/kg	–
CC(C)OC(=O)CCN1N=C(c2ccccn2)c2cc(Br)ccc2N(C)C1=O [Compound 260]	1.4	55 mg/kg	40 mg/kg	0.12 min	7.52 min	55.52 min	40 mg/kg	–
CCn1nnnc1CCN1N=C(c2ccccn2)c2cc(Br)ccc2N(C)C1=O [Compound 264]	2	10 mg/kg	5 mg/kg	0.43 min	1.77 min	8.93 min	–	–
CC(C)n1nnnc1CCN1N=C(c2ccccn2)c2cc(Br)ccc2N(C)C1=O [Compound 266]	3	–	5 mg/kg	0.40 to 0.52 min	0.58 to 4.00 min	12.07 to 16.32 min	–	15 mg/kg
CC(C)n1nnc(CCN2N=C(c3ccccn3)c3cc(Br)ccc3N(C)C2=O)n1 [Compound 267]	2	40 mg/kg	20 mg/kg	0.72 min	0.28 min	12.33 min	–	–
COc1nonc1CCN1N=C(c2ccccn2)c2cc(Br)ccc2N(C)C1=O [Compound 273]	>2	>20 mg/kg	10 mg/kg	0.25 to 0.27 min	2.38 to 9.68 min	43.97 to 44.82 min	–	–
CCOc1nonc1CCN1N=C(c2ccccn2)c2cc(Br)ccc2N(C)C1=O [Compound 274]	>1	>27.4 mg/kg	27.4 mg/kg	0.18 min	4.57 min	25.87 min	–	–
CC(C)Oc1nonc1CCN1N=C(c2ccccn2)c2cc(Br)ccc2N(C)C1=O [Compound 275]	>2	>60 mg/kg	30 mg/kg	0.93 to 4.90 min	6.37 to 17.25 min	–	–	–
CC(C)C(=O)CN1N=C(c2ccccn2)c2cc(Br)ccc2N(C)C1=O [Compound 279]	1.3	–	15 mg/kg	0.35 min	3.77 min	62.22 min	–	20 mg/kg
CN1C(=O)N(CCc2cccs2)N=C(c2ccccn2)c2cc(Br)ccc21 [Compound 284]	>1	>40 mg/kg	40 mg/kg	0.2 min	20 min	70.72 min	–	–
CN1C(=O)N(COCc2ccccc2)N=C(c2ccccn2)c2cc(Br)ccc21 [Compound 286]	3	7.5 mg/kg	2.5 mg/kg	1.32 to 3.20 min	3.38 to 9.38 min	42.15 to 64.37 min	–	–
CC(C)C(=O)OCN1N=C(c2ccccn2)c2cc(Br)ccc2N(C)C1=O [Compound 287]	3	30 mg/kg	10 mg/kg	0.32 to 0.43 min	0.63 to 7.53 min	44.20 to 46.25 min	–	–
CN1C(=O)N(COC(=O)CCl)N=C(c2ccccn2)c2cc(Br)ccc21 [Compound 288]	1.3	20 mg/kg	15 mg/kg	0.80 min	2.45 min	33.18 min	–	–

Compound	TI (SD rats [1]; SD)	MLD (SD rats [1]; SD)	minimal effective dose (SD rats [2]; [3])	Onset time (SD rats [2])	Righting feflex duration (SD rats [2])	Sedation Duration (SD rats [2])	minimal effective dose (SD rats [2]; [4])	MLD (SD rats [1])
CC(C)OC(=O)OCN1N=C(c2ccccn2)c2cc(Br)ccc2N(C)C1=O [Compound 289]	8.3	41.7 mg/kg	5 mg/kg	0.15 to 0.68 min	0.53 to 32.23 min	20.27 to 311.87 min	20 mg/kg	–
CN1C(=O)N(COC(=O)CCCl)N=C(c2ccccn2)c2cc(Br)ccc21 [Compound 290]	1.3	20 mg/kg	15 mg/kg	0.45 min	6.63 min	18.08 min	15 mg/kg	–
CN(C)C(=O)OCN1N=C(c2ccccn2)c2cc(Br)ccc2N(C)C1=O [Compound 291]	2	30 mg/kg	15 mg/kg	0.65 to 0.92 min	2.03 to 5.98 min	–	15 mg/kg	–
CCN(C)C(=O)OCN1N=C(c2ccccn2)c2cc(Br)ccc2N(C)C1=O [Compound 292]	1.5	30 mg/kg	20 mg/kg	0.40 min	2.75 min	46.82 min	20 mg/kg	–
CC(C)N(C)C(=O)OCN1N=C(c2ccccn2)c2cc(Br)ccc2N(C)C1=O [Compound 293]	1.3	20 mg/kg	15 mg/kg	0.95 min	4.20 min	82.85 min	15 mg/kg	–
CON(C)C(=O)OCN1N=C(c2ccccn2)c2cc(Br)ccc2N(C)C1=O [Compound 294]	>1.3	>20 mg/kg	15 mg/kg	0.52 to 0.55 min	3.35 to 6.47 min	28.68 to 40.58 min	–	–
CN1C(=O)N(COC(=O)N2CCCC2)N=C(c2ccccn2)c2cc(Br)ccc21 [Compound 295]	2	40 mg/kg	20 mg/kg	0.20 to 0.52 min	3.70 to 13.25 min	34.23 to 172.50 min	–	–
CC(C)C(=O)OCCN1N=C(c2ccccn2)c2cc(Br)ccc2N(C)C1=O [Compound 298]	2	20 mg/kg	10 mg/kg	0.22 to 0.38 min	6.73 to 8.97 min	17.03 to 30.07 min	–	–
CN1C(=O)N(CCOC(=O)CCl)N=C(c2ccccn2)c2cc(Br)ccc21 [Compound 300]	>1	>40 mg/kg	40 mg/kg	0.25 min	4.67 min	76.20 min	–	–
CC(F)C(=O)OCCN1N=C(c2ccccn2)c2cc(Br)ccc2N(C)C1=O (centres unmarked) [Compound 303]	>1	>20 mg/kg	20 mg/kg	0.43 min	14.30 min	74.88 min	–	–
CN(C)C(=O)OCCN1N=C(c2ccccn2)c2cc(Br)ccc2N(C)C1=O [Compound 304]	4	20 mg/kg	5 mg/kg	0.18 to 0.57 min	1.92 to 5.35 min	10.57 to 18.57 min	–	–
CCOC(=O)CN1N=C(c2ccccn2)c2cc(Br)ccc2-n2c(C)cnc21 [Compound 307]	>1.7	>15.15 mg/kg	8.75 mg/kg	0.27 to 0.73 min	0.90 to 4.27 min	20.87 to 32.75 min	–	–
CC[C@@H](C)OC(=O)CN1N=C(c2ccccn2)c2cc(Br)ccc2-n2c(C)cnc21 [Compound 309]	6	15 mg/kg	2.5 mg/kg	0.35 to 0.55 min	2.38 to 18.82 min	27.68 to 46.83 min	12.5 mg/kg	–
C=CC(C)OC(=O)CN1N=C(c2ccccn2)c2cc(Br)ccc2-n2c(C)cnc21 (centres unmarked) [Compound 310]	4	40 mg/kg	10 mg/kg	0.15 to 0.52 min	2.97 to 38.32 min	138.40 to 240 min	20 mg/kg	–
Cc1cnc2n1-c1ccc(Br)cc1C(c1ccccn1)=NN2CC(=O)OC1COC1 [Compound 311]	6	30 mg/kg	5 mg/kg	0.17 to 0.48 min	2.28 to 12.30 min	25.88 to 54.23 min	10 mg/kg	–
C#C[C@@H](C)OC(=O)CN1N=C(c2ccccn2)c2cc(Br)ccc2-n2c(C)cnc21 [Compound 312]	4	40 mg/kg	10 mg/kg	0.15 to 0.52 min	2.97 to 38.32 min	138.40 to 240 min	10 mg/kg	–
